One assay deals with Male Sprague-Dawley rats. In words: Protection against cardiac ischaemia: survival after 5 minutes coronary occlusion and reperfusion. The class given is in vivo, rat. To be noted: i.v. 1 mg/kgbw, 5 min. before the occlusion; non-treated control 10. As for the experimental part: Male Sprague-Dawley rats (380-450 g b.w.) were anaesthetized with sodiumpentobarbital (Nembutal 60 mg/kg body weight, i.p.) and artificially ventilated with room air (2 ml/100 g; 54 stroke/minutes) via tracheotomy. The right carotid artery was catheterized and connected to a pressure transducer (BPR-01, Stoelting) for the measurement of systemic arterial blood pressure (BP) by means of a preamplifier (Hg-02, Experimetria). Hydroxylamine derivatives disclosed in Example 5 were administered via the venous cannule to jugular vein (i.v.) and orally (p.o.). Heart rate (HR) was measured by a cardiotachometer (HR-01, Experimetria). The electrocardiogram (ECG standard lead II) was recorded on a devices recorder (MR-12, Medicor) by means of subcutaneous steel needles electrodes. The chest was opened by a left thoracotomy and the heart was exteriorized by a gentle pressure on the right side of the rib cage. A 4-0 silk suture was quickly placed under the main left coronary artery as described by Selye et al. (1960). The heart was carefully replaced in the chest and the animal left to recover. Rectal temperature was monitored and kept constant at 37 C. The experimental protocol was initiated with a 15 minute stabilization period during which the observation of a sustained blood pressure less than 70 mmHg and or the occurrence of anhythmia led to exclusion. Myocardial ischemia was induced with coronary occlusion for 5 minutes and reperfusion allowed for 10 minutes.
During the entire experiment BP, HR and ECG were continuously registered on a multiscriptor (R61-6CH, Medicor). Hydroxylamine derivatives, the tautomeric forms of which are represented by structures (I) and (II), were administered 5 to 60 minutes before the occlusion after i.v. and p.o. treatment, respectively. […]
The mean duration of ventricular tachycardia (VT) and/or ventricular fibrillation (VF) during the first 3 minutes of reperfusion was analyzed by one-way analysis of variance. The incidence of VF was analyzed using a chi-square test. […] The haemodynamic variables were analyzed using Student's “t”-test. The critical level of significance was set at p<0.05. All results were expressed as a means±S.E.M. Drugs were administered i.v. in a dose of 1 mg/kgbw 5 min. before the occlusion.
The hydroxylamine derivatives that are found to be particularly advantageous for protecting an animal against ischemic/reperfusion injury are listed below. Survival (%) indicates the percent of animals survived the effects of 5 minutes coronary occlusion.
Consider `Cl.OC(CON=C(Cl)c1ccco1)CN1CCCCC1` (centres unmarked) [Example 7, N-[2-hydroxy-3-(1-piperidinyl)propoxy]-2-furanecarboximidoyl chloride monohydrochloride], for which the “Survival (%)” value is 80%.
With `O=C(O)/C=C\C(=O)O.OC(CON=C(Cl)c1ccncc1)CN1CCCCC1` (centres unmarked) [Example 8, N-[2-hydroxy-3-(1-piperidinyl)propoxy]-4-pyridinecarboximidoyl chloride (Z)-2-butenedioate (1:1)], the “Survival (%)” value came to 100%.
On to `CC(C)NCC(O)CON=C(Cl)c1cccc(C(F)(F)F)c1.Cl` (centres unmarked) [Example 10, N-[2-hydroxy-3-[(1-methylethyl)amino]propoxy]-3-trifluoromethyl-benzene-carboximidoyl chloride monohydrochloride], for which the “Survival (%)” value came to 67%.
Turning to `Cl.OC(CON=C(Cl)c1cccc(C(F)(F)F)c1)CN1CCCCC1` (centres unmarked) [Example 13, N-[2-hydroxy-3-(1-piperidinyl)propoxy]-3-trifluoromethyl-benzenecarboximidoyl chloride monohydrochloride], the “Survival (%)” value is given as 60%.
In the case of `N=C(NOCC(CN1CCCCC1)OC(=O)c1ccccc1)c1cccnc1.O=C(O)/C=C\C(=O)O` (centres unmarked) [Example 20, N-[2-benzoyloxy-3-(1-piperidinyl)propoxy]-3-pyridinecarboximidamide (Z)-2-butenedioate (1:1)], the “Survival (%)” value is listed as 100%.
`CC(C)(C)NCC(O)CONC(=N)c1cccc(C(F)(F)F)c1.Cl.Cl` (centres unmarked) [Example 47, N-[3-[(1,1-dimethylethyl)amino]-2-hydroxypropoxy]-3-trifluoromethyl-benzenecarboximidamide dihydrochloride]: the “Survival (%)” value is reported as 100%.
Take `CC(C)(C)NC(=O)NOCC(O)CN1CCCCC1` (centres unmarked) [Example 62, N-tert-butyl-N′-[(2-hydroxy-3-(1-piperidinyl)propoxy)]-urea]: the “Survival (%)” value is listed as 57%.
In the case of `O=C(NOCC(O)CN1CCCCC1)Nc1cccc([N+](=O)[O-])c1` (centres unmarked) [Example 63, N-(3-nitro-phenyl)-N′-[(2-hydroxy-3-(1-piperidinyl)propoxy)]-urea], the “Survival (%)” value is listed as 50%.
On to `COC(=NOCC(O)CN1CCCCC1)c1cccnc1.O=C(O)/C=C\C(=O)O` (centres unmarked) [Example 66, Methyl-N-[2-hydroxy-3-(1-piperidinyl)propoxy]-3-pyridinecarboximidate (Z)-2-butenedioate (1:1)], for which the “Survival (%)” value came out at 57%.
The same measure, in the same setting: in the case of `COc1ccc(CC(Cl)=NOCC(O)CN2CCCCC2)cc1OC` (centres unmarked) [N-[2-hydroxy-3-(1-piperidyl)-propoxy]-∀-(3,4-dimethoxy-phenyl)-acetimidoyl chloride] it was 67%; in that of `CCN(CC)CC(O)CON=C(Cl)c1cccnc1.Cl` (centres unmarked) [N-[2-hydroxy-3-(diethyl-amino)-propoxy]-3-pyridincarboximidoyl chloride hydrochloride (1:1)], 62%.
Take `O=C(O)/C=C\C(=O)O.OC(CON=C(Cl)c1cccnc1)CN1CCOCC1` (centres unmarked) [N-[2-hydroxy-3-(morpholin-1-yl-propoxy]-3-pyridincarboxamidoyl chloride (Z)-2-butendioate (1:1)]: the “Survival (%)” value was 71%.
Regarding `O=C(O)/C=C\C(=O)O.OC(CON=C(Cl)c1cccnc1)CN1CCCC1` (centres unmarked) [N-[2-hydroxy-3-(pyrrolidin-1-yl)-propoxy]-3-pyridincarboximidoyl chloride (Z)-2-butendioate (1:1)], the “Survival (%)” value turned out to be 67%.
`CC(C)(C)NCC(O)CON=C(Cl)c1cccnc1.O=C(O)/C=C\C(=O)O` (centres unmarked) [N-[2-hydroxy-3-(tert-butyl-amino)-propoxy]-3-pyridincarboxamidoyl chloride (Z)-2-butendioate (1:1)]: the “Survival (%)” value was found to be 57%.
Regarding `CC(C)NCC(O)CON=C(Cl)c1cccnc1.O=C(O)/C=C\C(=O)O` (centres unmarked) [N-[2-hydroxy-3-prop-2-yl-amino)-propoxy]-3-pyridincarboximidoyl chloride (Z)-butendioate (1:1)], the “Survival (%)” value was determined as 60%.

In the next assay the test system is HSP72. In words: Heat stress induced HSP72 production in 3T3 cells. The class given is cell-based, mouse. The settings on record: 10^−5 M, treatment 15 min. before 30 min. 43° C. heat stress. On the procedure:
From the applied cells the 3T3 and L-929 mouse fibroblasts were cultured in MEM medium and grew in monolayer, the U-937 human leukemia cells were maintained in RPMI-1640 medium, in suspension culture, while the HeLa human epithelial cells were cultured in DMEM medium and in monolayer form. Cell cultures were maintained as described in example 6.2 (a) with the difference that cells were cultured in the above mentioned culture mediums.
Experiments were carried out applying stress before and after the drug treatment. Stress was provoked by heat, by chemical agent, HgCl2 treatment. The test compounds were applied in the treatments at the 10^−5 M concentration.
The experiments on 3T3 cell applying heat stress were performed as described in the 6.2. (c) point of example 6, with the difference that stress was induced by a 30 min. exposure at 43° C. temperature and treatment with the test compounds was performed 15 min. before or 100 min. after the heat stress.
Immunodetection was carried out using the HSP72 specific SPA 810 (StressGene) primary and the horse-radish peroxidase conjugated A9044 (Sigma) secondary antibodies. Densitometric evaluation was performed by a LKB Ultrascan XL densitometer.
With `O=C(O)/C=C\C(=O)O.OC(CON=C(Cl)c1cccnc1)CN1CCCCC1` (single isomer, unassigned; (-)) [(−)N-[2-hydroxy-3-(1-piperidinyl)-propoxy]-3-pyridine-carboximidoyl-chloride-(Z)-2-butenedioate(1:1)], the “HSP72 level relative to the stress exposed control” value is recorded as “+++ (>100%)”.
As for `O=C(O)/C=C\C(=O)O.c1cncc(C2=NOCC(CN3CCCCC3)O2)c1` (centres unmarked) [3-(3-piridyl)-5-[(1-piperidinyl)-methyl]-5,6-dihydro-6H-1,4,2-dioxazine-(Z)-2-butenedioate(1:1)], the “HSP72 level relative to the stress exposed control” value is recorded as “++ (51-100%)”.
Turning to `Cl.c1ccc(C2=NOCC(CN3CCCCC3)O2)cc1` (centres unmarked) [3-phenyl-5-[(1-piperidinyl)-methyl]-5,6-dihydro-6H-1,4,2-dioxazine hydrochloride], the “HSP72 level relative to the stress exposed control” value is given as “++ (51-100%)”.
The same measure, in the same setting: in the case of `Cl.Cl.N=C(NOCC(O)CN1CCCCC1)c1cnc2ccccc2c1` (centres unmarked) [Example 42] it was “+++ (>100%)”; in that of `CCCNC(=O)NOCC(O)CN1CCCCC1` (centres unmarked) [Example 56, N-[2-hydroxy-3-(1-piperidinyl)propoxy]-N′-propyl-urea], “+++ (>100%)”; in that of `CN(C)C(=Nc1ccccc1)NOCC(O)CN1CCCCC1.Cl` (centres unmarked) [Example 71, N,N-dimethyl-N′-[2-hydroxy-3-(1-piperidinyl)-propoxy]-N″-phenyl-guanidine hydrochloride], 0 (0 indicates that the treatment altered by ±20% the stress induced hsp72 level in the cells).
With `Cl.OC(CON(C(=Nc1ccccc1)c1ccccc1)c1ccccc1)CN1CCCCC1` (centres unmarked) [Example 73], the “HSP72 level relative to the stress exposed control” value was 0 (0 indicates that the treatment altered by ±20% the stress induced hsp72 level in the cells).
In the case of `COC(=NOCCCN1CCCCC1)c1cccnc1.O=C(O)/C=C\C(=O)O` [Methyl-{N-[3-(1-piperidinyl)-propoxy]}-3-pyridine-carboximidate maleate], the “HSP72 level relative to the stress exposed control” value is given as 0 (0 indicates that the treatment altered by ±20% the stress induced hsp72 level in the cells).
Same read-out and setting: for `CN(C)C(=NOCCCN1CCCCC1)Nc1ccccc1.Cl` [N,N-dimethyl-N′-phenyl-N″-[3-(1-piperidinyl)-propoxy]-guanidine hydrochloride] the value was “++ (51-100%)”; for `CCCCCCNC(=O)N(C)OCCCN1CCCCC1` [N-[3-(I-piperidinyl)-propoxy]-N-methyl-N′-(n-hexyl)-urea], 0 (0 indicates that the treatment altered by ±20% the stress induced hsp72 level in the cells).
As for `Cl.c1cncc(C(=NOCCCN2CCCCC2)N2CCCC2)c1` [N-[3-(I-piperidinyl)-propoxy]-N′-tetramethylene-3-pyridine-carboxamidine hydrochloride], the “HSP72 level relative to the stress exposed control” value is “+++ (>100%)”.
`CC(=O)OC(CONC(=O)NC1CCCCC1)CN1CCCCC1.Cl` (centres unmarked) [N-cyclohexyl-N′-[2-acetoxy-3-(1-piperidinyl)-propoxy]-urea hydrochloride]: the “HSP72 level relative to the stress exposed control” value is 0 (0 indicates that the treatment altered by ±20% the stress induced hsp72 level in the cells).
For `CN(OCCCN1CCCCC1)C(=O)c1cccc(C(F)(F)F)c1.Cl` [N-methyl-N-[3-(1-piperidinyl)-propoxy]-m-trifluoromethyl-benzamide hydrochloride], the “HSP72 level relative to the stress exposed control” value is “+++ (>100%)”.
For “N-(2-hydroxy-3-piperidino-propoxy)-ethylurethane”, the “HSP72 level relative to the stress exposed control” value is “+ (21-50%)”.
With “N-[2-hydroxy-3-(1-piperidinyl)-propoxy]-benzylurethane”, the “HSP72 level relative to the stress exposed control” value is given as 0 (0 indicates that the treatment altered by ±20% the stress induced hsp72 level in the cells).

The assay is the same for the next values; noted with them: 10^−5 M, treatment 100 min. after 30 min. 43° C. heat stress.
Regarding `O=C(O)/C=C\C(=O)O.OC(CON=C(Cl)c1ccncc1)CN1CCCCC1` (centres unmarked) [Example 8, N-[2-hydroxy-3-(1-piperidinyl)propoxy]-4-pyridinecarboximidoyl chloride (Z)-2-butenedioate (1:1)], the “HSP72 level relative to the stress exposed control” value is “++ (51-100%)”.
Same read-out and setting: in the case of `Cl.Cl.N=C(NOCC(O)CN1CCCCC1)c1cnc2ccccc2c1` (centres unmarked) [Example 42] it was “+++ (>100%)”.
